Experimental data reported in patent US20220125772A1, “A2A ANTAGONISTS AS COGNITION AND MOTOR FUNCTION ENHANCERS” (Biotie Therapies, Inc., priority 2010, published 2022).

Tests used:
Type in all cases: in vivo, human
[1] = test system: Parkinson's disease (PD) patients; test: Go/No-Go (GNG) Test in Parkinson's disease patients, double-blind crossover study; conditions: for GNG reaction times: vs placebo plus levodopa
Source text: (§1) Continuous performance testing, in various forms, has become a standard clinical procedure. Generally speaking, continuous performance testing evaluates a subject's visual attention by displaying a series of visual stimuli, to which the subject is instructed to respond. In a typical case, often referred to as a “Go—No Go” test, the stimuli are of two types (the “Go” and “No Go” stimuli); the subject is instructed to respond only to the “Go” stimulus, and not to respond or “pass” when presented with the “No Go” stimulus. Data collected for each stimulus presented consists of the type of the stimulus; whether or not the subjects responded; and, if so, how long they took to respond. The continuous performance test has been in use since the 1950s.
(§2) Parkinson's disease (PD) patients participated in a double-blind, crossover study to assess the effect of co-administration of an A2a antagonist with a dopamine precursor on cognition and motor function. The A2a antagonist was 4-hydroxy-4-methyl-piperidine-1-carboxylic acid-(4-methoxy-7-morpholin-4-yl-benzothiazol-2-yl)-amide and the dopamine precursor was levodopa.
(§3) The patients were randomly allocated to 1 week of 4-hydroxy-4-methyl-piperidine-1-carboxylic acid-(4-methoxy-7-morpholin-4-yl-benzothiazol-2-yl)-amide and levodopa, 1 week washout (levodopa only), then 1 week placebo plus levodopa or the reverse order. Optimal levodopa doses were established for each patient according to normal clinical practice. Active drug was administered at 60 mg bid (N=14) or 20 mg bid (N=12) of 4-hydroxy-4-methyl-piperidine-1-carboxylic acid-(4-methoxy-7-morpholin-4-yl-benzothiazol-2-yl)-amide. At the end of each treatment week, participants completed motor assessments, a Continuous Performance Test (CPT), a Go/No-Go (GNG) Test, and a 2-Back Test after overnight withdrawal of levodopa and again after intravenous (IV) infusion of a suboptimal level of levodopa.
Subjects monitored a visual display while single uppercase letters were presented one at a time interspersed with the number “5”. Participants were instructed to push a target response button at the occurrence of every letter (i.e., a “Go” response) but to withhold a response for the number 5 (i.e., a “No-Go” response). Target frequency was manipulated in a blocked fashion, with two levels of target frequency (83% letters: 17% “5”s; 50% letters: 50% “5”s).

[2] = test system: Parkinson's disease (PD) patients; test: 2-Back Test in Parkinson's disease patients, double-blind crossover study; conditions: either dose (60 mg bid, 20 mg bid) with levodopa; all p-values>0.05
Source text: as §2, §3

[3] = test system: Parkinson's disease (PD) patients; test: Continuous Performance Test (CPT) in Parkinson's disease patients, double-blind crossover study; conditions: either dose (60 mg bid, 20 mg bid) with levodopa; all p-values>0.05
Source text: as §1, §2
The patients were randomly allocated to 1 week of 4-hydroxy-4-methyl-piperidine-1-carboxylic acid-(4-methoxy-7-morpholin-4-yl-benzothiazol-2-yl)-amide and levodopa, 1 week washout (levodopa only), then 1 week placebo plus levodopa or the reverse order. […]

[4] = test system: Parkinson's disease (PD) patients; test: Participant-reported sleepiness in Parkinson's disease patients, double-blind crossover study; conditions: compared to placebo
Source text: as §2, §3

[5] = test system: Parkinson's disease (PD) patients; test: Motor assessments (tapping speed, UPDRS item) in Parkinson's disease patients, double-blind crossover study
Source text: as §2, §3

[6] = FIG. 1 legend, A2a antagonist compared with placebo, dose not stated

With `COc1ccc(N2CCOCC2)c2sc(NC(=O)N3CCC(C)(O)CC3)nc12` [4-hydroxy-4-methyl-piperidine-1-carboxylic acid-(4-methoxy-7-morpholin-4-yl-benzothiazol-2-yl)-amide] the GNG reaction times ([1]; 20 mg bid for 1 week with levodopa, p=0.05, N=12) was “faster GNG reaction times”, the GNG accuracy ([1]; 60 mg bid and 20 mg bid with levodopa, ps>0.25) was “without reduced accuracy” and the GNG reaction times ([1]; 60 mg bid for 1 week with levodopa, p<0.01, N=14) was “faster GNG reaction times”. For the same compound, the “Go/No-Go task mistakes (FIG. 1)” value [1, 6] was “fewer mistakes”, the “Go/No-Go task reaction time (FIG. 1)” value [1, 6] was “reaction times are faster” and the “effect on the 2-Back test” value [2] was “no significant effects”. For the same compound, the “effect on the CPT test” value [3] was “no significant effects”, the reported sleepiness ([4]; 20 mg bid, p>0.05) was “no significant difference” and the reported sleepiness ([4]; 60 mg bid, before and after levodopa, p<0.05) was “less sleepiness”. For the same compound, the “rapidly alternating hand movements item from the UPDRS” value ([5]; 60 mg bid and levodopa, p=0.03) was “significant” and the tapping speed ([5]; 60 mg bid, before and after levodopa, p: 0.05) was “significant motor benefit”.
